Test results from patent publication EP4624457A1, “I[…] DERIVATIVES, I[…] NEURODEGENERATIVE DISEASES” (Centre National de la Recherche Scientifique, priority 2024, dated 2025).

Biological target: T1, neuronal α3β2 nAChR subtype (Rattus norvegicus, UniProt P04757+P12390)
T1 construct: expressed in transfected cells; host or cells: Xenopus laevis oocytes injected with mRNA
Assay: Two-electrode voltage clamp electrophysiology on Xenopus laevis oocytes expressing the α3β2 nAChR
Format: cell-based
Details: portimine 100 nM - 1 mM for 45 seconds; stated for the three nAChR subtypes tested
Experimental: • Figure 1 represents the chemical structure of ingrilimine according to compound (Illa) formula. • Figure 2 represents the cytotoxic activity of ingrilimine. A2780 ovarian and HT29 colorectal carcinoma cells were grown in RPMI 1640 supplemented with 10% fetal calf serum (FCS) and 1% glutamine. U87-MG glioblastoma cells were grown in Dulbecco minimal essential medium containing 4.5 g/L glucose, 10% FCS and 1% glutamine at 37 °C in a humidified atmosphere containing 5% CO2. For IC50 determination, the cells were seeded in 96-well plates (3 × 10^3 cells/well) containing 90 µL of growth medium. After 24 h of culture, the cells were treated with ingrilimine at 10 different final concentrations. Cell viability was determined by luminescence after 72 h incubation. (a) Effect of ingrilimine on A2780 ovarian carcinoma cells. (b) Effect of ingrilimine on U87-MG glioblastoma cells. […] Sector Q normal cells that accumulated the JC-1 dye (fluorescence emission 590 nm). […] Changes in fluorescence emission were recorded by flow cytometry using the JC-1 mithocondrial membrane potential-dependent fluorescent dye. […] Phosphatidylcholine exposure in A2780 cell was quantified by flow cytometry using FITC-Annexin V. Dead or necrotic cells were detected using the vital dye propridium iodide. […]

T1 sequence (P12390 25-500): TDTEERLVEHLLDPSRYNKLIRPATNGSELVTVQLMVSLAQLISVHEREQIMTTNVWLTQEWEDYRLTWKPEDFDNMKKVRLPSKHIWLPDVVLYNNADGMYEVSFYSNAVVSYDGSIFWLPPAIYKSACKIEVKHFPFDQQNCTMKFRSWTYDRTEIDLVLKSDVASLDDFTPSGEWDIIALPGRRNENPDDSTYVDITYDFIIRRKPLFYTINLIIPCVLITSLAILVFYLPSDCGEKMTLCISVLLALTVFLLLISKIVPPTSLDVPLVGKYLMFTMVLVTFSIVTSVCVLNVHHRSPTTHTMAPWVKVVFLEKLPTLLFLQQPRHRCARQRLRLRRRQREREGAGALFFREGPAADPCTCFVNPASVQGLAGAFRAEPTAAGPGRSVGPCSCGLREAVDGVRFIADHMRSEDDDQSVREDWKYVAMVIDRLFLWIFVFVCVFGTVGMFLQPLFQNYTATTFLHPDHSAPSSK
T1 sequence (P04757 26-499): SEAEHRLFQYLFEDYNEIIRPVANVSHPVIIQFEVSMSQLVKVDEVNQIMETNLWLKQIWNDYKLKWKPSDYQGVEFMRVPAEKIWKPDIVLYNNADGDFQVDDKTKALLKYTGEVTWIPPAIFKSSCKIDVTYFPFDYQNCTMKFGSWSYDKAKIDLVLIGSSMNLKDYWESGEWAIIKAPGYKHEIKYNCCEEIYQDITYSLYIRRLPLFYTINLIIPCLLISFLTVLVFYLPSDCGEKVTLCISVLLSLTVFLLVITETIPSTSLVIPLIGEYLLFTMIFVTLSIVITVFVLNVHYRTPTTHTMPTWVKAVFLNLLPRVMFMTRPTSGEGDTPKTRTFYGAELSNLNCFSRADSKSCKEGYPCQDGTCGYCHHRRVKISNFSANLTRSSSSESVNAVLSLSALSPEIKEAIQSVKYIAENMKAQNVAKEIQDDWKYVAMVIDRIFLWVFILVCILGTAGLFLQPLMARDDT

SMILES: C=CC1=C[C@@H]2[C@@H]3O[C@]4(CC[C@H](O4)[C@@H](C)C[C@@H](O)C3=O)C[C@H](O)C3=NCC[C@@]32CC1 [Portimine-A]
- inhibition of the acetylcholine-evoked current, concentration range: micromolar range
